# Test system: murine macrophage-like cell line J774.A1
# Assay: Inhibition of cholesterol esterification in mammalian cells (macrophage assay)
# Type: cell-based
# Conditions: J774.A1 macrophages loaded with ac-LDL, 14C-oleic acid; read-out: Cholesterol Esterification IC50
# Method: B. Assay of the Inhibition of Cholesterol Esterification in Mammalian Cells
# The esterification of cholesterol was determined in the murine macrophage-like cell line J774.A1. Cells were seeded in 35 mm wells at a density of 300,000 cells per well in 2 mls of Dulbecco's Eagle Medium (DMEM) supplemented with 10% fetal bovine serum (FBS). Cells were incubated at 37° C. in an atmosphere of 5% CO2 and 93% humidity. After 24 hours the media was changed to 0.68 mls 10% FBS-DMEM containing 34 μg of acetylated human low density lipoprotein (ac-LDL) to increase the intracellular concentration of cholesterol and promote esterification. At 41 hours, various inhibitors were added to the cells in DMSO (10 μl/ml maximum). At 43 hours, the cells were pulsed with 0.1 mM ^14 C-oleic acid (10,000 dpm/nmol) complexed with BSA (bovine serum albumin) to follow cholesterol ester formation. The experiment was terminated at 45 hours by washing the monolayers 3 times with 3 ml of Tris-buffered saline at 4° C. The lipids were extracted by incubating the monolayers with 1.5 ml of hexane:isopropanol (3:2, v/v) for 30 min. under gentle agitation. During this period, 10,000 dpm 3H-cholesteryl linoleate and 10 μg of cholesteryl oleate were added as an internal standard and carrier respectively. The organic solvent was removed and the cells were washed with an additional 1.0 ml of hexane: isopropanol which was combined with the original extract. The cells were allowed to dry overnight, digested with 1.5 ml of 0.2N sodium hydroxide for 1 hour and an aliquot of the solubilized protein used for protein determination using the Lowry method. The organic extract was taken to dryness, the residue resuspended in 100 μl of chloroform and the lipids separated on silica gel impregnated glass fiber plates using a hexane:diethylether:acetic acid (170:30:1, v/v/v) solvent system. Individual lipids were visualized with iodine and the cholesteryl ester spot cut out and transferred to scintillation vials to determine the amount of radioactivity. The conversion of oleic acid to cholesteryl ester in the control averaged 0.54 […] and was increased upon the addition of ac-LDL to about 10.69±0.69 […]. […] It should be noted that many of the intermediates had inhibitory activity in the in vitro ACAT assay and in the macrophage assay.
row,Structure (SMILES),IC50
1,"CCCCCCCN(CCCCCNc1nc(-c2ccccc2)c(-c2ccccc2)[nH]1)C(=O)Nc1ccc(F)cc1F [Example 338, N'-(2,4-difluorophenyl)-N-[5-(4,5-diphenyl-1H-imidazol-2-ylamino)pentyl]-N-heptylurea]",3400 nM
2,"CCCCCCCN(CCCCCCCCSc1nc(-c2ccccc2)c(-c2ccccc2)[nH]1)C(=O)Nc1ccc(F)cc1F [Example 3, N'-(2,4-difluorophenyl)-N-[8-(4,5-diphenyl-1H-imidazol-2-ylthio)octyl]-N-heptylurea]",17500 nM
3,CCCCCCCN(CCCCCSc1nc(-c2ccccc2)c(-c2ccccc2)[nH]1)C(=O)c1ccc(F)cc1F [Example 345],300 nM
4,"CCCCCCCN(CCCCCCc1nc(-c2ccccc2)c(-c2ccccc2)[nH]1)C(=O)Nc1ccc(F)cc1F [Example 339, N'-(2,4-difluorophenyl)-N-[6-(4,5-diphenyl-1H-imidazol-2-yl)hexyl]-N-heptylurea]",4400 nM
5,"CCCCCCCN(CCSc1nc(-c2ccccc2)c(-c2ccccc2)[nH]1)C(=O)Nc1ccc(F)cc1F [Example 189, N'-(2,4-difluorophenyl)-N-[2-(4,5-diphenyl-1H-imidazol-2-ylthio)ethyl]-N-heptylurea]",2200 nM
6,"CCCCCCCN(CCCCCSc1nc(-c2ccccc2)c(-c2ccccc2)[nH]1)C(=O)Nc1c(F)cc(F)cc1F [Example 71, N-[5-(4,5-diphenyl-1H-imidazol-2-ylthio)pentyl]-N-heptyl-N'-(2,4,6-trifluorophenyl)urea]",1900 nM
7,CCCCCCCN(CCCCCSc1ncc(-c2ccccc2)n1-c1ccccc1)C(=O)Nc1ccc(F)cc1F [Example 260],6000 nM
8,"CCCCCCCN(CCCCC[S+]([O-])c1nc(-c2ccccc2)c(-c2ccccc2)[nH]1)C(=O)Nc1ccc(F)cc1F (centres unmarked) [Example 278, N'-(2,4-difluorophenyl)-N-[5-(4,5-diphenyl-1H-imidazol-2-ylsulfinyl)pentyl]-N-heptylurea]",1200 nM
9,"CCCCCCCN(CCCCCSc1nc(-c2ccccc2)c(-c2ccccc2)[nH]1)C(=O)NC(C)C [Example 105, N-[5-(4,5-diphenyl-1H-imidazol-2-ylthio)pentyl]-N-heptyl-N'-(1-methylethyl)urea]",300 nM
10,"CCCCCCCN(CCCCCSc1nc(-c2ccccc2)c(-c2ccccc2)[nH]1)C(=O)Cc1ccc(F)cc1F [Example 340, 2,4-difluoro-N-[(5-(4,5-diphenyl-1H-imidazol-2-ylthio)pentyl)]-N-heptylbenzeneacetamide]",200 nM
11,"CCCCCCCN(CCCCCSc1nc(-c2ccccc2)c(-c2ccccc2)n1C)C(=O)Nc1ccc(F)cc1F [Example 6, N'-(2.4-difluorophenyl)-N-heptyl-N-[5-(1-methyl-4,5-diphenyl-1H-imidazol-2-ylthio)pentyl]urea]",3800 nM
12,CCCCCCCN(CCCCCSc1nc(-c2ccccc2)c(-c2ccccc2)[nH]1)C(=O)c1ccccc1 [Example 346],500 nM
13,CCCCCCCN(CCCCCSc1nc(-c2ccccc2)c(-c2ccccc2)[nH]1)C(=O)CC1CCCCC1 [Example 344],400 nM
14,CCCCCCCN(CCCCCSc1nc(-c2ccccc2)cn1-c1ccccc1)C(=O)Nc1ccc(F)cc1F [Example 259],900 nM
15,"CCCCCCCN(CCCCCSc1nc(-c2ccccc2)c(-c2ccccc2)[nH]1)C(=N)Nc1ccccc1 [Example 499, N-[5-(4,5-diphenyl-1H-imidazol-2-ylthio)-pentyl]-N-heptyl-N'-phenylguanidine]",3400 nM
16,CCCCCCCN(CCCCCSc1nc(-c2ccc(C(C)(C)C)cc2)c(-c2ccc(C(C)(C)C)cc2)[nH]1)C(=O)Nc1ccc(F)cc1F [Example 203],50000 nM
17,"CCCCCCCN(CCCCCS(=O)(=O)c1nc(-c2ccccc2)c(-c2ccccc2)[nH]1)C(=O)Nc1ccc(F)cc1F [Example 281, N'-(2,4-difluorophenyl)-N-[5-[(4,5-diphenyl-1H-imidazol-2-yl)sulfonyl]pentyl]-N-heptylurea]",3500 nM
18,"CCCCCCCN(CCCCCSc1nc(-c2ccccc2)c(-c2ccccc2)[nH]1)C(=O)OC1CCCCC1 [Example 401, cyclohexyl [5-(4,5-diphenyl-1H-imidazol-2-ylthio)pentyl]heptylcarbamate]",400 nM
19,CCCCCCCCNC(=O)N(CCCCCSc1nc(-c2ccccc2)c(-c2ccccc2)[nH]1)c1c(F)cc(F)cc1F [Example 208],2800 nM
20,"CCCCCCCN(CCCCCSc1nc(-c2ccccc2)c(-c2ccccc2)[nH]1)C(=O)Oc1ccccc1 [Example 402, Phenyl [5-(4,5-diphenyl-1H-imidazol-2-ylthio)pentyl]heptylcarbamate]",400 nM
21,"CCCCCCCN(CCCCCSc1nc(-c2ccccc2)c(-c2ccccc2)[nH]1)C(=O)NC1CCCCC1 [Example 94, N'-cyclohexyl-N-[5-(4,5-diphenyl-1H-imidazol-2-ylthio)pentyl]-N-heptylurea]",100 nM
22,CCCN(CCCCCSc1nc(-c2ccccc2)c(-c2ccccc2)[nH]1)C(=O)Nc1ccc(F)cc1F [Example 190],2200 nM
23,"CCCCCCCN(CCCCCSc1nc(-c2ccccc2)c[nH]1)C(=O)Nc1ccc(F)cc1F [Example 160, N'-(2,4-difluorophenyl)-N-heptyl-N-[5-(4-phenyl-1H-imidazol-2-ylthio)pentyl]urea]",1600 nM
24,"CCCCCCCN(CCCCCSc1nc(-c2ccccc2)c(-c2ccccc2)[nH]1)C(=O)NCCC [Example 8, N-[5-(4,5-diphenyl-1H-imidazol-2-ylthio)pentyl]-N-heptyl-N'-propylurea]",500 nM
25,"CCCCCCCCNC(=O)N(CCCCCSc1nc(-c2ccccc2)c(-c2ccccc2)[nH]1)c1ccc(F)cc1F [Example 206, N-(2,4-difluorophenyl)-N-[5-(4,5-diphenyl-1H-imidazol-2-ylthio)pentyl]-N'-octylurea]",400 nM
26,"CCCCCCCN(CCCCCSc1nc(-c2ccccc2)c(-c2ccccc2)[nH]1)C(=O)Nc1ccc(-c2ccccc2)cc1 [Example 192, N'-[(1,1'-biphenyl)-4-yl]-N-[5-(4,5-diphenyl-1H-imidazol-2-ylthio)pentyl]-N-heptylurea]",2000 nM
27,"CCCCCCCN(CCCCCSc1nc(-c2ccccc2)c(-c2ccccc2)[nH]1)C(=S)Nc1ccc(F)cc1F [Example 276, N'-(2,4-difluorophenyl)-N-[5-(4,5-diphenyl-1H-imidazol-2-ylthio)pentyl]-N-heptylthiourea]",6100 nM
28,"CCCCCCCN(CCCCCSc1nc(-c2ccccc2)c(-c2ccccc2)[nH]1)C(=S)Nc1c(F)cc(F)cc1F [Example 298, N-[5-(4,5-diphenyl-1H-imidazol-2-ylthio)pentyl]-N-heptyl-N'-(2,4,6-trifluorophenyl)thiourea]",2500 nM
29,"CCCCCCCN(CCCCCSc1nc(-c2ccccc2)c(-c2ccccc2)[nH]1)C(=O)Cc1ccc(-c2ccccc2)cc1 [Example 343, N-[5-(4,5-diphenyl-1H-imidazol-2-ylthio)pentyl]-N-heptyl[1,1'-biphenyl]-4-acetamide]",1100 nM
